For eight compounds, AC50 results are on record in ChEMBL document CHEMBL5291721, “A preclinical secondary pharmacology resource illuminates target-adverse drug reaction associations of marketed drugs” (Nat Commun, 2023).

Targets include Melanocortin receptor 4 (Homo sapiens, UniProt P32245); Vasopressin V1a receptor (Homo sapiens, UniProt P37288); D(3) dopamine receptor (Homo sapiens, UniProt P35462).
Experiment [1] deals with T1, Type-1 angiotensin II receptor (Homo sapiens, UniProt P30556).
T1 sequence (P30556 whole entry): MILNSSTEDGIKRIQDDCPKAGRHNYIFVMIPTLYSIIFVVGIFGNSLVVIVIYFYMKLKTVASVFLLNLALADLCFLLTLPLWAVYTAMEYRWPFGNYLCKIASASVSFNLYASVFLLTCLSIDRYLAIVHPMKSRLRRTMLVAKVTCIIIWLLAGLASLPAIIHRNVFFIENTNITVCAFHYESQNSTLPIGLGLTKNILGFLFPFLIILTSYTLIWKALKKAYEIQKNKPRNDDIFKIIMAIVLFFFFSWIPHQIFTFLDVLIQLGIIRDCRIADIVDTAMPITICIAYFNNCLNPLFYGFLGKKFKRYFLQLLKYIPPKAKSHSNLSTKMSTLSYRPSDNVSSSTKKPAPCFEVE

In experiment [2] the target is T2, Muscarinic acetylcholine receptor M1 (Homo sapiens, UniProt P11229).
T2 sequence (P11229 whole entry): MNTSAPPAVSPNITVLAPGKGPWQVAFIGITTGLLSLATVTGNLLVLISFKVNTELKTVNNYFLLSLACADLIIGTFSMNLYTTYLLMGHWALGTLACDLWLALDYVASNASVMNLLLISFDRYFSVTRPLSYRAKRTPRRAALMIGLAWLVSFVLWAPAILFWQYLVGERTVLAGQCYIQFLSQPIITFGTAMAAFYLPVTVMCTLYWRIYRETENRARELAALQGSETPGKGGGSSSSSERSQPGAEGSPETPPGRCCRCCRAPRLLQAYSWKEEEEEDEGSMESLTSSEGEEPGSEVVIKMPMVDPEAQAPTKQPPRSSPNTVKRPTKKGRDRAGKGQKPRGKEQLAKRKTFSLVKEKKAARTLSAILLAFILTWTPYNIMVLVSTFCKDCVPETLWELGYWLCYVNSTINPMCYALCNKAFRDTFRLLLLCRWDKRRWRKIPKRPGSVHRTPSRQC
Type of experiment: functional.

Experiment [3] addresses Voltage-gated inwardly rectifying potassium channel KCNH2 (Homo sapiens, UniProt Q12809). It is filed as functional. The settings on record: read-out: AC50.
Experiment [4] concerns the target T3, 5-hydroxytryptamine receptor 3A (Homo sapiens, UniProt P46098).
T3 sequence (P46098 whole entry): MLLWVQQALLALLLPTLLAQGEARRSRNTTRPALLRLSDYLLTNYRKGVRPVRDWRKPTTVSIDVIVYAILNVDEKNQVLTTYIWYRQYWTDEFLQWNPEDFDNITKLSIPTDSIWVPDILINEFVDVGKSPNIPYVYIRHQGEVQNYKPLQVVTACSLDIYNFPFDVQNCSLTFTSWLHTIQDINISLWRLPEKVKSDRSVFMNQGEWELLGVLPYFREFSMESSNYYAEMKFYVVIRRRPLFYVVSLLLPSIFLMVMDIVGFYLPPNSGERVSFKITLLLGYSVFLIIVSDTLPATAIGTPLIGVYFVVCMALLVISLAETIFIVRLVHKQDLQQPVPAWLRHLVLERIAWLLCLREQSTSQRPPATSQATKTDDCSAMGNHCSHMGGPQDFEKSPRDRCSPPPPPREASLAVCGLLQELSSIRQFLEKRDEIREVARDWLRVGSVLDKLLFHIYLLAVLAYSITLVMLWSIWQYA
Type of experiment: functional.

Experiment [5] has as its target Beta-2 adrenergic receptor (Homo sapiens, UniProt P07550).
The target of another experiment is Cannabinoid receptor 1 (Homo sapiens, UniProt P21554). Type of experiment: functional, cell-based.
Sequence of Cannabinoid receptor 1 (P21554 whole entry): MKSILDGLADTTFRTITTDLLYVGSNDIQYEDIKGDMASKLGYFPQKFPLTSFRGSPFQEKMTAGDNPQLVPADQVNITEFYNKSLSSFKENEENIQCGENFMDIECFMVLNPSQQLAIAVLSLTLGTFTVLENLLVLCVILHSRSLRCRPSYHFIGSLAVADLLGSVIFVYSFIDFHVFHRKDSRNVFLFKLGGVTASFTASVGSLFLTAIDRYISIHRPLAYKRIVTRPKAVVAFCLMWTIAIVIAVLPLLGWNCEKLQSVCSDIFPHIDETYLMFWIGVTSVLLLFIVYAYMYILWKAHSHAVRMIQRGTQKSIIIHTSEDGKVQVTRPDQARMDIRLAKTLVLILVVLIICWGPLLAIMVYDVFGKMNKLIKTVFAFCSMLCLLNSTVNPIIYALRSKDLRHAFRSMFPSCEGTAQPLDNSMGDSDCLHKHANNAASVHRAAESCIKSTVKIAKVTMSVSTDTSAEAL
In experiment [6] the target is Sodium-dependent dopamine transporter (Homo sapiens, UniProt Q01959).
Experiment [7] concerns the target Voltage-dependent L-type calcium channel subunit alpha-1C (Rattus norvegicus, UniProt P22002). It is filed as functional.
Experiment [8] deals with Kappa-type opioid receptor (Homo sapiens, UniProt P41145).
Sequence of Kappa-type opioid receptor (P41145 whole entry): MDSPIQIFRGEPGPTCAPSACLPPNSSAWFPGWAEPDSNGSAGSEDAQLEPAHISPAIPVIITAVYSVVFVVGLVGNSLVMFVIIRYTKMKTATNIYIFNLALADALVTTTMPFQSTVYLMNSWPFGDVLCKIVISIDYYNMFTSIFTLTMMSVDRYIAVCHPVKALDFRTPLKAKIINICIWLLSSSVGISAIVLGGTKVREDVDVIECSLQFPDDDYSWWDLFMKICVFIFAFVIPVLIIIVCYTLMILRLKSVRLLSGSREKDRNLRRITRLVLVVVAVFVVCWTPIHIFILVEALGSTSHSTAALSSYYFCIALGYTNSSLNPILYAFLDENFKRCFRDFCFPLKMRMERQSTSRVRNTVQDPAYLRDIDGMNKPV
Experiment [9] has as its target T4, Gamma-aminobutyric acid receptor subunit alpha-1 (Rattus norvegicus, UniProt P62813). Type of experiment: functional.
In experiment [10] the target is Growth hormone secretagogue receptor type 1 (Homo sapiens, UniProt Q92847).
Sequence of Growth hormone secretagogue receptor type 1 (Q92847 whole entry): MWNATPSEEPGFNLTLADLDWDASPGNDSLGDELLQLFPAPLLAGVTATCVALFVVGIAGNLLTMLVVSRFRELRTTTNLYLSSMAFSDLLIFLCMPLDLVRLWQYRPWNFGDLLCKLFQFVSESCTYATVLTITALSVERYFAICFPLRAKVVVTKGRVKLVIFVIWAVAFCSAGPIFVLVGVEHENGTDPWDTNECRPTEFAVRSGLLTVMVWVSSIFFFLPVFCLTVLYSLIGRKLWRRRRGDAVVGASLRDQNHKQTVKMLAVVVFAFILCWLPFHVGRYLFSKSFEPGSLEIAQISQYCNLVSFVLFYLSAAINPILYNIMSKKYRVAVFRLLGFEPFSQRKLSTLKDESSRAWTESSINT
For experiment [11], the target named is T4, Gamma-aminobutyric acid receptor subunit alpha-1.
For the next experiment, the target named is D(1A) dopamine receptor (Homo sapiens, UniProt P21728). Type of experiment: functional, cell-based.
Sequence of D(1A) dopamine receptor (P21728 whole entry): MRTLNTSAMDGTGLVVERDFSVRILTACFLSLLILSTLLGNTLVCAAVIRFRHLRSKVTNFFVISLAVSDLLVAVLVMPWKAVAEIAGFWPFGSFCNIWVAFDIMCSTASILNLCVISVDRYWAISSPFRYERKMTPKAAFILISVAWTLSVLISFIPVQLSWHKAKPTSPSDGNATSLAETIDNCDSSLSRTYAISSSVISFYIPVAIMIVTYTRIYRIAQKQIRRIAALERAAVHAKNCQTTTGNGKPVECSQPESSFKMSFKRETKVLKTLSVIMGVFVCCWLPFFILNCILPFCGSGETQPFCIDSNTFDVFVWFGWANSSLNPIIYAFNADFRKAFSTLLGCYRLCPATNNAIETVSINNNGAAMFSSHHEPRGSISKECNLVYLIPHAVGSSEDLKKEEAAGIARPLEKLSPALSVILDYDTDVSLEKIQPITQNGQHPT
The target of experiment [12] is T5, Alpha-2A adrenergic receptor (Homo sapiens, UniProt P08913).
T5 sequence (P08913 whole entry): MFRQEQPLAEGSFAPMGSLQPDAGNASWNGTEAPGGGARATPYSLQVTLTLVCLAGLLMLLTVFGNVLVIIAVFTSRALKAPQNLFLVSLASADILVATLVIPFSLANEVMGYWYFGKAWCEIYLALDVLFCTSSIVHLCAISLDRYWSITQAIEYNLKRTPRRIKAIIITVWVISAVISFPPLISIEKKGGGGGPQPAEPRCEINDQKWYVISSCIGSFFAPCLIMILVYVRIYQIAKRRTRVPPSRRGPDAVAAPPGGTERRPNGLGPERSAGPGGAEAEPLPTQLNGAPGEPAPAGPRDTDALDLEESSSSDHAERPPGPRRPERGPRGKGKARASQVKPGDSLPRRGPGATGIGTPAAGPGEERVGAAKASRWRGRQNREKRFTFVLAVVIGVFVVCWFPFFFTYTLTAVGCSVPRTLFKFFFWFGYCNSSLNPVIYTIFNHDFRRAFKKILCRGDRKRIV
It is filed as functional, cell-based.

Structures are written as SMILES.
Note: assay procedure not described here.

T4 sequence (P62813 whole entry): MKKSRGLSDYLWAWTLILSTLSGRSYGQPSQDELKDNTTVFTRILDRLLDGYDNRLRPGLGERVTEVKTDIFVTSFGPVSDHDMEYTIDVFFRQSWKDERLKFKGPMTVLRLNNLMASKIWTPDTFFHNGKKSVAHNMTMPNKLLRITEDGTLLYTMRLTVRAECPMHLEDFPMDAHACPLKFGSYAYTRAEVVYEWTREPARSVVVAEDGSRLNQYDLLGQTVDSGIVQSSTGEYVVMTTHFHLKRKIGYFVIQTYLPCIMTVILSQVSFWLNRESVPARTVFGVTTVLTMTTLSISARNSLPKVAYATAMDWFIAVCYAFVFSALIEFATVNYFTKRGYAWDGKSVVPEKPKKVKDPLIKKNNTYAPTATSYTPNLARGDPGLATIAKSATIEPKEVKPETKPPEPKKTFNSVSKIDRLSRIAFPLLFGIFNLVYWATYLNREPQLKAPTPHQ
Sequence of Vasopressin V1a receptor (P37288 whole entry): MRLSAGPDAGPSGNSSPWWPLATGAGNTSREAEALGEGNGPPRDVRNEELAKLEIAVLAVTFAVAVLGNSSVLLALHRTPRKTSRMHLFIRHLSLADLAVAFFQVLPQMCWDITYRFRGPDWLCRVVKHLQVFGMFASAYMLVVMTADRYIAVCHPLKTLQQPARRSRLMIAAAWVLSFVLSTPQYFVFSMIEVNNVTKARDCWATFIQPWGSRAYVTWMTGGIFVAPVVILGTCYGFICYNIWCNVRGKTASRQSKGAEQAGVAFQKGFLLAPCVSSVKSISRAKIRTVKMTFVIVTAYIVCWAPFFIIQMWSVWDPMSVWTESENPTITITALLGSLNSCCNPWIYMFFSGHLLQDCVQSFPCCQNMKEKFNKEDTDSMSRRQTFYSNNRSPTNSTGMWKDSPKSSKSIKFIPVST
Sequence of Melanocortin receptor 4 (P32245 whole entry): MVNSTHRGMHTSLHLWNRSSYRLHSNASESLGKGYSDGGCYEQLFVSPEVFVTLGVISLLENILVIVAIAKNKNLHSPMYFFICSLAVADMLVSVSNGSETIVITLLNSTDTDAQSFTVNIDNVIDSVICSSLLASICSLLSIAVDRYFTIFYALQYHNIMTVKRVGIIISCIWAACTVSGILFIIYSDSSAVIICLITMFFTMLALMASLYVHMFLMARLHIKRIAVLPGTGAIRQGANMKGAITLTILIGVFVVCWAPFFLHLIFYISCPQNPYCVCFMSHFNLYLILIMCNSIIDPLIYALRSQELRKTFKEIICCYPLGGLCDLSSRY
Sequence of Beta-2 adrenergic receptor (P07550 whole entry): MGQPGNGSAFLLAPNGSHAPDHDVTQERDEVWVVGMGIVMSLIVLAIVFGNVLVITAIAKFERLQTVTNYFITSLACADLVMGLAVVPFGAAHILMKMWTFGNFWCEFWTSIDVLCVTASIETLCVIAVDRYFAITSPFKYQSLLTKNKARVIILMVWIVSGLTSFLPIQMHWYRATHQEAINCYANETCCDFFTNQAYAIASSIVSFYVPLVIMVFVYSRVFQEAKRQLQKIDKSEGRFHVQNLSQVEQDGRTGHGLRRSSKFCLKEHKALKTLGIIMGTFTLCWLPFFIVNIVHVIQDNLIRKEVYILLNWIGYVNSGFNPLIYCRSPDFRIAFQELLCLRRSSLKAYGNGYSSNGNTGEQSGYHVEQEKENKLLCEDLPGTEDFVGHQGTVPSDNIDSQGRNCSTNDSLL
Sequence of D(3) dopamine receptor (P35462 whole entry): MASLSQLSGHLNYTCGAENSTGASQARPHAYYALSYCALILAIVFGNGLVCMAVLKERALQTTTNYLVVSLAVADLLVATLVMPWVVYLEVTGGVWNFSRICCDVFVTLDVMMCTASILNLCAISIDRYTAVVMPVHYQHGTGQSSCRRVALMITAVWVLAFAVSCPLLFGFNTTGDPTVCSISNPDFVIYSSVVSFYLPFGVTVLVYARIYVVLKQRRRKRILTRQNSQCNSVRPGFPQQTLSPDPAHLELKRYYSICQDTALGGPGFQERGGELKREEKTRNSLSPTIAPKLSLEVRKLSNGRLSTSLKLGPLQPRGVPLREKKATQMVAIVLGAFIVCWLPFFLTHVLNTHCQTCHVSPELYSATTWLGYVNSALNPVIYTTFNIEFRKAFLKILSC
Sequence of Voltage-gated inwardly rectifying potassium channel KCNH2 (Q12809 whole entry): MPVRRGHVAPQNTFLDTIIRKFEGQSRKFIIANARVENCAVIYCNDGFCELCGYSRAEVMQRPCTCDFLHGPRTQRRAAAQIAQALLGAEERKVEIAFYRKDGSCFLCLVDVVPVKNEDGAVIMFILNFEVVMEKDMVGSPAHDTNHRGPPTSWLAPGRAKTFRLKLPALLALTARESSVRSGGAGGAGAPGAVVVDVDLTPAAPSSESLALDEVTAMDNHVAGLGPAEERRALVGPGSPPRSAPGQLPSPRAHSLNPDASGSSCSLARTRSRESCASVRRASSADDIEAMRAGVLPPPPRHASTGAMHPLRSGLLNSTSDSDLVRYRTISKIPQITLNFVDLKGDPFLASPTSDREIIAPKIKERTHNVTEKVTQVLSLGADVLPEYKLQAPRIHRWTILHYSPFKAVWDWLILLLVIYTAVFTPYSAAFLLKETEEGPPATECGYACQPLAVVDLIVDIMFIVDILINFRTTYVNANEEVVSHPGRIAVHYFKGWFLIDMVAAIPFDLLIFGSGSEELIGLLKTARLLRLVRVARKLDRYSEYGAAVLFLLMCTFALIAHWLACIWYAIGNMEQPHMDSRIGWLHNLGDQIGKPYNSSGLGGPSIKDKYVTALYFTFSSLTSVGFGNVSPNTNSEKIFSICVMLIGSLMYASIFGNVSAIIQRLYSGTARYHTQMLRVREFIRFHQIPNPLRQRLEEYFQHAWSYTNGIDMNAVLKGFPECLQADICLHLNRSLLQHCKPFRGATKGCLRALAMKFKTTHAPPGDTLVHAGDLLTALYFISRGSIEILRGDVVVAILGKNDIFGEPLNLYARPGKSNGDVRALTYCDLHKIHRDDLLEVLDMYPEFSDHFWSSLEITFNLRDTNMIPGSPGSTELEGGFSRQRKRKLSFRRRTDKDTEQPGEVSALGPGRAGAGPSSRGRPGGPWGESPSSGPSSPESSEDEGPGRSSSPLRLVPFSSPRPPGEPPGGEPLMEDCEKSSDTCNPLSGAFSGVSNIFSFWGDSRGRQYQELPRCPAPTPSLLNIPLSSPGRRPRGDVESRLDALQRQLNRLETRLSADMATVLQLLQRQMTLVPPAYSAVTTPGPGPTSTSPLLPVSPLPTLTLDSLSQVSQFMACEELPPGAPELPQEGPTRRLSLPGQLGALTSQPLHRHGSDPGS

As to `COc1ccc(C(Cl)=C(c2ccc(OC)cc2)c2ccc(OC)cc2)cc1` [CHLOROTRIANISENE], the concentration at half-maximal activity (AC50) (in general, the concentration at which the activity in the assay is half-maximal) is over 30 µM in experiment [1]; over 30 µM in experiment [2]; over 30 µM in experiment [3]; over 30 µM in experiment [4]; over 10 µM on Melanocortin receptor 4; over 30 µM on Vasopressin V1a receptor. In addition, the AC50 in [5] was over 10 µM; at D(3) dopamine receptor, over 30 µM; on Cannabinoid receptor 1 it was over 30 µM; in [6], over 30 µM; in experiment [7] it was over 10 µM; in [8] it was over 30 µM. The AC50 (in experiment [9]; in [10]; in [11]; at D(1A) dopamine receptor; in [12]) was over 30 µM each time.
As to `Oc1cc(O)c2c(c1)O[C@H](c1ccc(O)c(O)c1)[C@@H](O)C2` [CIANIDANOL], the AC50 is over 30 µM in experiment [1]; over 10 µM in experiment [2]; over 30 µM in experiment [3]; over 30 µM in experiment [4]; over 30 µM on Melanocortin receptor 4; over 30 µM at Vasopressin V1a receptor. The half-maximal activity concentration (AC50) is over 10 µM in experiment [5]; over 30 µM at D(3) dopamine receptor; over 30 µM on Cannabinoid receptor 1; over 30 µM in experiment [6]; over 10 µM in [7]; over 10 µM in [8]. In addition, the AC50 in experiment [9] was over 10 µM; in experiment [10] it was over 30 µM; in experiment [11] it was over 10 µM; on D(1A) dopamine receptor it was over 10 µM; in experiment [12], over 10 µM.
`C=C(c1ccccc1OCc1cccc(Cl)c1)n1ccnc1` [CROCONAZOLE]: the AC50 in experiment [1] is over 30 µM; in experiment [2], over 10 µM; in [3], 4.97 µM; in experiment [4] it was over 30 µM; at Melanocortin receptor 4 it was over 30 µM; on Vasopressin V1a receptor, over 30 µM. In addition, the AC50 in experiment [5] is over 30 µM; at D(3) dopamine receptor, over 30 µM; on Cannabinoid receptor 1, over 30 µM; in experiment [6], over 30 µM; in experiment [7], 18.8 µM; in experiment [8] it was 1.03 µM. In addition, the AC50 in experiment [9] was over 10 µM; in experiment [10], over 30 µM; in [11], over 10 µM; at D(1A) dopamine receptor, over 10 µM; in experiment [12] it was over 10 µM.
For the compound `CCN(CC)C(C)C(=O)c1ccccc1` (stereo unspecified) [DIETHYLPROPION], the AC50 in experiment [1] was over 30 µM; in [2], over 10 µM; in experiment [3] it was 6.5 µM; in [4] it was over 30 µM; at Melanocortin receptor 4 it was over 30 µM; on Vasopressin V1a receptor it was over 30 µM. Besides, the AC50 in experiment [5] was over 10 µM; on D(3) dopamine receptor, over 30 µM; at Cannabinoid receptor 1, over 30 µM; in experiment [6], over 30 µM; in [7] it was over 10 µM; in experiment [8], over 10 µM. Moreover, the half-maximal activity concentration (AC50) in experiment [9] is over 10 µM; in experiment [10], over 30 µM; in experiment [11], over 10 µM; at D(1A) dopamine receptor, over 10 µM; in [12], over 10 µM.
With `Cc1ccc(-c2ncc(Cl)cc2-c2ccc(S(C)(=O)=O)cc2)cn1` [ETORICOXIB], the AC50 was over 10 µM in experiment [1]; over 10 µM in [2]; over 30 µM in experiment [3]; over 10 µM in [4]; over 10 µM at Melanocortin receptor 4; over 30 µM on Vasopressin V1a receptor. In addition, the AC50 is over 10 µM in experiment [5]; over 10 µM on D(3) dopamine receptor; over 30 µM on Cannabinoid receptor 1; over 10 µM in experiment [6]; over 10 µM in [7]; over 10 µM in experiment [8]. The AC50 (in experiment [9]; in experiment [10]; in experiment [11]; at D(1A) dopamine receptor; in experiment [12]) was over 10 µM throughout.
Regarding `CN1C(=O)CN=C(c2ccccc2F)c2cc([N+](=O)[O-])ccc21` [FLUNITRAZEPAM], the AC50 was over 30 µM in experiment [1]; over 10 µM in experiment [2]; over 30 µM in experiment [3]; over 10 µM in [4]; over 30 µM on Melanocortin receptor 4; over 10 µM at Vasopressin V1a receptor. Further, the AC50 is over 10 µM in [5]; over 30 µM at D(3) dopamine receptor; over 30 µM at Cannabinoid receptor 1; over 10 µM in experiment [6]; over 10 µM in experiment [7]; 6.39 µM in experiment [8]. In addition, the AC50 was 0.0055 µM in [9]; 29.1 µM in [10]; over 10 µM in [11]; over 10 µM at D(1A) dopamine receptor; over 10 µM in [12].
Turning to `O=C(C[S+]([O-])Cc1ccco1)NC/C=C\COc1cc(CN2CCCCC2)ccn1` (stereo unspecified) [LAFUTIDINE], the AC50 in experiment [1] was over 10 µM; in [2], over 10 µM; in [3], over 30 µM; in [4], over 30 µM; on Melanocortin receptor 4, over 10 µM; at Vasopressin V1a receptor it was over 10 µM. Also, the AC50 was over 10 µM in [5]; over 30 µM at D(3) dopamine receptor; over 30 µM on Cannabinoid receptor 1; over 10 µM in experiment [6]; over 10 µM in experiment [7]; over 10 µM in experiment [8]. The AC50 (in [9]; in experiment [10]; in experiment [11]; at D(1A) dopamine receptor; in [12]) was over 10 µM in each case.
For the compound `CC1NCCOC1c1ccccc1` (stereo unspecified) [PHENMETRAZINE], the AC50 in experiment [1] was over 30 µM; in [2], over 10 µM; in experiment [3] it was over 30 µM; in experiment [4], over 30 µM; on Melanocortin receptor 4 it was over 30 µM; at Vasopressin V1a receptor it was over 30 µM. For the same compound, the AC50 is over 10 µM in experiment [5]; over 30 µM at D(3) dopamine receptor; over 30 µM on Cannabinoid receptor 1; 25.6 µM in experiment [6]; over 10 µM in experiment [7]; over 10 µM in [8]. The AC50 in experiment [9] is over 10 µM; in experiment [10], over 30 µM; in experiment [11], over 10 µM; at D(1A) dopamine receptor, over 10 µM; in experiment [12], over 10 µM.
